Reference: US20240216549A1, “ENHANCEMENT OF TREATMENT WITH IMMUNOTHERAPEUTIC AGENTS” (ACT THERAPEUTICS LTD, priority 2021, published 2024)

Test system: subcutaneous prostate cancer model (PC3)
Test: Tumour specific uptake of Evans Blue vs. Enhancement MI
Type: in vivo, mice
Conditions: ACT, Enhancement 0.5 MHz MI 0.2, compared to MI=0 (no ultrasound); 30 min after treatment
Method: To investigate the effect of MI variance of the US Enhancement field, tumour specific uptake of Evans Blue (EB, fluorescent dye) has been investigated in a subcutaneous prostate cancer model (PC3) in mice. Five groups with Enhancement insonation MIs of 0, 0.1, 0.2, 0.3 and 0.4 were investigated (N=3 animals per group). […] 30 min after treatment, the tumours were excised and the amount of EB was measured by spectrophotometry at 620 nm.

- increase in tumour specific uptake: ~60%
Compound: Cc1cc(-c2ccc(/N=N/c3ccc4c(S(=O)(=O)O)cc(S(=O)(=O)O)c(N)c4c3O)c(C)c2)ccc1/N=N/c1ccc2c(S(=O)(=O)O)cc(S(=O)(=O)O)c(N)c2c1O [Evans Blue]
